# Results as given in PMC7948796, “Mammalian-like type II glutaminyl cyclases in Porphyromonas gingivalis and other oral pathogenic bacteria as targets for treatment of periodontitis” (The Journal of Biological Chemistry, 2021).
# Like-named read-outs stand apart in the source and are kept apart here.
# B1: PgQC (Porphyromonas gingivalis W83) (protein)
# chain: NGNNTSETQGDRTEQAETVQADLFSADSAYTFVQRQVNFGPRIPGTAPHRACGDWLVATLRSFGAAVQEQTAEIKAHDGTMLPMRNIIASYRPEATGRMLLMAHWDTRPVCDQDANPAMHTETFDGADDGGSGVGVLLEIARYLGQQKDLGMGIDIVFFDTEDYGSYGDDESWCLGSQYWSRNPHVAGYKAEAGILLDMVGAKGATFYWEYFSKSYAPGLISAVWQTAAALGYGNYFIQADGGALTDDHVPVIKNLGIPCIDIINYSSKNEHGFGDHWHTQRDNMQIIDKNVLDAVGETVIRYLDEQVKAASH
# Tests used:
# PiQC [1] = molecular target: T1, PiQC (Prevotella intermedia, UniProt A0AAD1F671); type: biochemical; details: for Effect of chelator on QC activity: PiQC, Fig. S2
# Method: (§1) To test whether QC is a metalloenzyme, the turnover of H-Gln-AMC at a concentration corresponding to 0.5 KM was investigated in the presence of the metal chelators 1,10- phenanthroline, dipicolinic acid, and EDTA. The fluorometric activity assay was performed as described above, except for the presence of 1% (v/v) DMSO in the case of 1,10-phenanthroline or dipicolinic acid. Finally, the residual QC activity was determined at steady state, whereas QC without chelators and ± 1% DMSO served as positive control.
# (§2) 250 µM H-Gln-AMC and increasing chelator
# (§3) concentrations were used to investigate the inhibitory effect on QC activity. Bars indicate residual
# (§4) QC activity following initiation of the reaction by adding 5 nM QC (red: PgQC; green: PiQC; blue:
# (§5) TfQC). All measurements were performed at 30°C as described in the text.
# (§6) (1 picture or pasted object on this page, not shown here)
# TfQC [2] = molecular target: T2, TfQC (Tannerella forsythia, UniProt G8UMP8); type: biochemical; details: Fig. S2
# Method: as §1, §2, §3, §4, §5, §6
# PgQC [3] = molecular target: T3, PgQC (Porphyromonas gingivalis, UniProt Q7MT37); experiment: Residual QC activity in presence of metal chelators; type: biochemical; set-up: His-tag (pET28a, thrombin-cleavable) (N, cleaved yes); made in house; host or cells: E. coli Rosetta(DE3)pLysS; details: Fig. S2
# Method: as §1
# Supplementary Figure 2: Inhibition of bacteroidal QC activity by metal chelators: ( A) ED TA ,
# (B) dipicolinic acid and (C) 1,10-phenantroline. 250 µM H-Gln-AMC and increasing chelator
# as §3, §4, §5, §6
# PiQC [4] = molecular target: T1, PiQC; experiment: QC inhibition assay with fluorogenic substrate H-Gln-AMC (Ki); type: biochemical; details: 1% DMSO, pH 8.0, 30 °C
# Method: (§7) Inhibitory constants were determined using concentrations of H-Gln-AMC varying from 1/4 KM to 2 KM and a final concentration of bacterial QC in a range between 25 nM and 50 nM. Progress curves were fitted to the general equation for competitive inhibition.
# TfQC [5] = molecular target: T2, TfQC; experiment: as above; type: biochemical; details: 1% DMSO, pH 8.0, 30 °C
# Method: as §7
# HsQC [6] = molecular target: T4, HsQC (Homo sapiens, UniProt Q16769); experiment: as above; type: biochemical
# PgQC [7] = molecular target: T3, PgQC; experiment: as above; type: biochemical; set-up: His-tag (pET28a, thrombin-cleavable) (N, cleaved yes); made in house; host or cells: E. coli Rosetta(DE3)pLysS
# Method: as §7
# HsQC [8] = molecular target: T4, HsQC; set-up: method as in Schilling et al. ([44]); details: ref Schilling et al. ([44]); cited from earlier work
# TfQC [9] = molecular target: T2, TfQC; experiment: Kinetics of cyclization of H-Gln-AMC; type: biochemical
# Method: (§8) QC activity was evaluated using the fluorogenic substrate H-Gln-AMC as described previously ([43]). Measurements were performed at different concentrations of fluorogenic substrate and 0.5 U pyroglutaminyl aminopeptidase in 50 mM Tris-HCl, 50 mM NaCl at pH 8.0. After 10 min incubation time at 30 °C, the reaction was initiated by addition of approximately 50 nM QC to a final volume of 125 μl reaction mixture. QC activity was calculated from a standard curve of the fluorophore AMC at assay conditions using excitation/emission wavelengths of 380/460 nm. All measurements were carried out in 96-well microtiter plates (Fisher Scientific) at 30 °C using the FluoStar Optima (BMG Labtech). All kinetic data were evaluated using GraFit software (Version 7, Erithacus software Ltd).
# (§9) Supplementary Figure 1: QC activity measurements for bacteroidal QC cataly zed cyclization of the fluorogenic substrate H-Gln-AMC. (A) v/S-characteristics and Lineweaver-Burk plots for PgQC (red circles), TfQC (green triangles) and PiQC (blue squares). QC activity measurements were performed in 50 mM Tris-HCl, pH 8.0 and 50 mM NaCl at 30°C. Kinetic data were evaluated using GraFit software (Version 7, Erithacus software Ltd., Horley, UK). (B) pH dependence of PgQC, TfQC, and PiQC activities; colors and sy mbols as in (A). The specificity constants kcat/KM were determined under first-order rate law conditions with substrate concentrations of 1/10 KM.
# (§10) Measurements were carried out at 30°C in buffer consisting of 0.1 M Tris-HCl, 0.05 MES, 0.05 mM acetic acid and 0.05 mM NaCl.. […]
# PgQC [10] = molecular target: T3, PgQC
# Method: as §8, §9, §10
# PiQC [11] = molecular target: T1, PiQC; type: biochemical
# Method: as §8, §9, §10
# [12] = substrate: CC(C)[C@H](NC(=O)[C@H](CCC(N)=O)NC(=O)[C@@H](N)CCC(N)=O)C(=O)N[C@@H](C)C(=O)N[C@@H](C)C(=O)N[C@@H](C)C(=O)N[C@@H](CC(=O)O)C(=O)N1CCC[C@H]1C(=O)N[C@@H](CO)C(=O)N1CCC[C@H]1C(N)=O; experiment: Conversion of N-termini of putative natural substrates, spectrophotometric assay with glutamate dehydrogenase; type: biochemical, Porphyromonas gingivalis; details: other: PgQC; determined under first-order-rate law conditions, [S] << KM; pH 8.0; 30.0 °C
# Method: (§11) For evaluation of possible physiological substrates, PgQC activity was determined spectrophotometrically by using glutamate dehydrogenase as auxiliary enzyme described previously ([44]). […] After 10-min incubation time at 30 °C, reactions were initiated by addition of approximately 115 nM PgQC to a final volume of 250 μl reaction mixture. QC turnover of substrates was monitored by a decrease of absorption at 340 nm and enzyme activity was determined from a standard curve of NH4Cl at assay conditions.
# [13] = substrate: CC[C@H](C)[C@H](NC(=O)[C@@H](NC(=O)[C@H](CC(=O)O)NC(=O)[C@@H](N)CCC(N)=O)C(C)C)C(=O)N[C@@H](CCCNC(=N)N)C(=O)N1CCC[C@H]1C(=O)N[C@@H](Cc1c[nH]c2ccccc12)C(=O)N[C@@H](CO)C(=O)N[C@@H](CC(C)C)C(=O)N[C@@H](CCC(N)=O)C(N)=O; experiment: as above; type: biochemical, Porphyromonas gingivalis; details: other: PgQC; determined under first-order-rate law conditions, [S] << KM; pH 8.0; 30.0 °C
# Method: as §11
# [14] = substrate: CC[C@H](C)[C@H](NC(=O)[C@H](CO)NC(=O)[C@H](CC(=O)O)NC(=O)[C@@H]1CCCN1C(=O)[C@@H](NC(=O)[C@@H](NC(=O)[C@H](CO)NC(=O)[C@@H](N)CCC(N)=O)C(C)C)C(C)C)C(=O)NCC(=O)N[C@@H](CCCNC(=N)N)C(N)=O; experiment: as above; type: biochemical, Porphyromonas gingivalis; details: other: PgQC, pH 8.0, 30 °C
# Method: as §11
# [15] = substrate: C[C@H](NC(=O)[C@H](CCC(=O)O)NC(=O)[C@H](Cc1ccc(O)cc1)NC(=O)[C@@H](NC(=O)[C@H](CCCNC(=N)N)NC(=O)[C@H](CC(N)=O)NC(=O)[C@H](CCCNC(=N)N)NC(=O)[C@H](CO)NC(=O)[C@@H](N)CCC(N)=O)[C@@H](C)O)C(=O)N[C@@H](Cc1ccc(O)cc1)C(N)=O; experiment: as above; type: biochemical, Porphyromonas gingivalis; details: other: PgQC, pH 8.0, 30 °C
# Method: as §11
# [16] = substrate: CC(C)[C@H](NC(=O)[C@H](CO)NC(=O)[C@H](C)NC(=O)[C@H](CC(N)=O)NC(=O)[C@H](CO)NC(=O)[C@H](CCC(=O)O)NC(=O)[C@@H](N)CCC(N)=O)C(=O)N[C@@H](CCCNC(=N)N)C(=O)N1CCC[C@H]1C(=O)N[C@@H](CO)C(N)=O; experiment: as above; type: biochemical, Porphyromonas gingivalis; details: other: PgQC; determined under first-order-rate law conditions, [S] << KM; pH 8.0; 30.0 °C
# Method: as §11
# [17] = H-Gln-AMC substrate, 1% DMSO, pH 8.0, 30 °C, read-out: Inhibition of QC (Ki) PgQC
# T2 sequence (G8UMP8 entry or part of it): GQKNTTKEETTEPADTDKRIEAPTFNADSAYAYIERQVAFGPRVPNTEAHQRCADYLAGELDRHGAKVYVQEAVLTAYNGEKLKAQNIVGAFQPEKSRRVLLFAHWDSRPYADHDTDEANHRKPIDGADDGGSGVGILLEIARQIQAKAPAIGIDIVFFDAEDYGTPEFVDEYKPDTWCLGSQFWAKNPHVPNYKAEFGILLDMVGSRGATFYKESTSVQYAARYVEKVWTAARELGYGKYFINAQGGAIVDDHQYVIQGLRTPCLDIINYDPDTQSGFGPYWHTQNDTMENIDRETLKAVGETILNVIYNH
# T1 sequence (A0AAD1F671 24-340 limits assumed): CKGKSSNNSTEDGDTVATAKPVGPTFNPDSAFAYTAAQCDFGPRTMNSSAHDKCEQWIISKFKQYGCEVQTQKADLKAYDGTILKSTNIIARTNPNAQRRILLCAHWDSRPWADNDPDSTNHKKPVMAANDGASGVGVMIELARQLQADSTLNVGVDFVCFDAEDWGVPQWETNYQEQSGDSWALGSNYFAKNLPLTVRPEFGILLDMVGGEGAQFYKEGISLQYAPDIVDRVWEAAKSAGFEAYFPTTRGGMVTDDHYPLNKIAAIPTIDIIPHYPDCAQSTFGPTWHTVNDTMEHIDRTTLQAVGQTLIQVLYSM
# T4 sequence (Q16769 29-361): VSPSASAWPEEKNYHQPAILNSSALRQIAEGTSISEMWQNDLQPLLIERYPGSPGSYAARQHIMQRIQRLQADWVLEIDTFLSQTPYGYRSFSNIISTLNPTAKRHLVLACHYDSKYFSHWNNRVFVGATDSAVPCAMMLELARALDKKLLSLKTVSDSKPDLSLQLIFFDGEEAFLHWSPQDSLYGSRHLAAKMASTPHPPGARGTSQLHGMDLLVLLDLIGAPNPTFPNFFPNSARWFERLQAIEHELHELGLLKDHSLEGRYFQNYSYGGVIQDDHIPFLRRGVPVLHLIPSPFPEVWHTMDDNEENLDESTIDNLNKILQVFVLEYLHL
molecule,measurement,setting,value
"c1cnc2c(c1)ccc1cccnc12 [1,10-phenanthroline]",Sensitivity of PiQC to chelator,PiQC [1]; PiQC compared with other bacteroidal QCs,particularly sensitive
same,Effect of chelator on QC activity,PiQC [1],strong inhibitory activity
same,Effect of chelator on QC activity,TfQC [2],strong inhibitory activity
same,Effect of chelator on QC activity,PgQC [3],strong inhibitory activity
"c1ccc2[nH]cnc2c1 [Benzimidazole, benzimidazole]",Ki,PiQC [4],85.5 ± 4.7 µM
same,Ki,TfQC [5],170 ± 1 µM
same,Ki,HsQC [6],318 ± 23 µM
same,Ki,PgQC [7]; [17],32.1 ± 1.4 µM
"c1ccc(Cn2ccnc2)cc1 [1-Benzylimidazol, 1-benzylimidazole]",Ki,PiQC [4],13.5 ± 2.2 µM
same,Ki,TfQC [5],6.45 ± 0.33 µM
same,Ki,HsQC [6],16.8 ± 3.5 µM
same,Mode of inhibition of PgQC,PgQC [7]; Fig. S3,competitive manner
same,Ki,PgQC [7]; [17],10.4 ± 0.3 µM
same,Ki,"PgQC [7]; stated in text for the bacteroidal QCs in general, read-out: Estimated Ki, highest efficacy",~10 µM
"c1c[nH]cn1 [Imidazole, imidazole]",Ki,PiQC [4],288 ± 11 µM
same,Ki,TfQC [5],280 ± 15 µM
same,Ki,PgQC [7]; [17],349 ± 23 µM
O=C(O)c1cccc(C(=O)O)n1 [dipicolinic acid],Effect of chelator on QC activity,PiQC [1],strong inhibitory activity
same,Effect of chelator on QC activity,TfQC [2],strong inhibitory activity
same,Effect of chelator on QC activity,PgQC [3],strong inhibitory activity
O=C(O)CN(CCN(CC(=O)O)CC(=O)O)CC(=O)O [EDTA],Effect of chelator on QC activity,PiQC [1],little influence
same,Effect of chelator on QC activity,TfQC [2],little influence
same,Effect of chelator on QC activity,PgQC [3],little influence
Cc1cc(=O)oc2cc(NC(=O)[C@@H](N)CCC(N)=O)ccc12 [H-Gln-AMC],Km,HsQC [8],54 ± 2 µM
same,kcat,HsQC [8],5.3 ± 0.1 s⁻¹
same,KM value higher compared with HsQC,TfQC [9],~20 fold
same,specificity constant kcat/KM relative to that of HsQC,TfQC [9],approximately 4%
same,Km,"TfQC [9]; pH 8.0, 30 °C",1.09 ± 0.03 mM
same,kcat,"TfQC [9]; pH 8.0, 30 °C",4.49 ± 0.22 s⁻¹
same,specificity constant kcat/KM relative to that of HsQC,PgQC [10],~9%
same,Km,"PgQC [10]; pH 8.0, 30 °C",510 ± 13 µM
same,kcat,"PgQC [10]; pH 8.0, 30 °C",4.71 ± 0.22 s⁻¹
same,specificity constant kcat/KM relative to that of HsQC,PiQC [11],~13%
same,Km,"PiQC [11]; pH 8.0, 30 °C",645 ± 7 µM
same,kcat,"PiQC [11]; pH 8.0, 30 °C",8.51 ± 0.37 s⁻¹
B1,kcat/Km,[12],12500 ± 1900 M⁻¹ s⁻¹
same,kcat/Km,[13],18600 ± 100 M⁻¹ s⁻¹
same,Km,[14],492.5 ± 26 µM
same,kcat,[14],7 ± 0.66 s⁻¹
same,kcat/Km,[14],14300 ± 600 M⁻¹ s⁻¹
same,Km,[15],203.7 ± 5.1 µM
same,kcat,[15],13.3 ± 1.6 s⁻¹
same,kcat/Km,[15],65100 ± 6000 M⁻¹ s⁻¹
same,kcat/Km,[16],4300 ± 100 M⁻¹ s⁻¹
